The supplement of paper PMC11451515

System: SEM cells
Experiment: cell viability relative to DMSO control; higher = less cytotoxic
Conditions: 48 h
In short: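 Viability is a per-plate percentage relative to DMSO wells, with cell-free wells as background. CellTiter-Glo One luminescence was read after 48 h at 37°C on 1536-well plates (5 μl) of NOMO1 or SEM (500 cells/well) or P12-Ichikawa (1000 cells/well) leukemia cells. The cells had been adapted for at least four passages in each medium and pin-dosed with library compounds in DMSO from 47 μM to 0.79 nM in 11 threefold steps.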

[1] = HPLM + 10% dialyzed FBS, 0.000781 µM
[2] = HPLM + 10% dialyzed FBS, 0.00234 µM
[3] = HPLM + 10% dialyzed FBS, 0.00702 µM
[4] = HPLM + 10% dialyzed FBS, 0.0211 µM
[5] = HPLM + 10% dialyzed FBS, 0.0632 µM
[6] = HPLM + 10% dialyzed FBS, 0.19 µM
[7] = HPLM + 10% dialyzed FBS, 0.569 µM
[8] = HPLM + 10% dialyzed FBS, 1.71 µM
[9] = HPLM + 10% dialyzed FBS, 5.12 µM
[10] = HPLM + 10% dialyzed FBS, 15.4 µM
[11] = HPLM + 10% dialyzed FBS, 46.1 µM
[12] = RPMI 5 mM glucose + 10% FBS, 0.000781 µM
[13] = RPMI 5 mM glucose + 10% FBS, 0.00234 µM
[14] = RPMI 5 mM glucose + 10% FBS, 0.00702 µM
[15] = RPMI 5 mM glucose + 10% FBS, 0.0211 µM
[16] = RPMI 5 mM glucose + 10% FBS, 0.0632 µM
[17] = RPMI 5 mM glucose + 10% FBS, 0.19 µM
[18] = RPMI 5 mM glucose + 10% FBS, 0.569 µM
[19] = RPMI 5 mM glucose + 10% FBS, 1.71 µM
[20] = RPMI 5 mM glucose + 10% FBS, 5.12 µM
[21] = RPMI 5 mM glucose + 10% FBS, 15.4 µM
[22] = RPMI 5 mM glucose + 10% FBS, 46.1 µM
[23] = RPMI 5 mM glucose + 10% dialyzed FBS, 0.000781 µM
[24] = RPMI 5 mM glucose + 10% dialyzed FBS, 0.00234 µM
[25] = RPMI 5 mM glucose + 10% dialyzed FBS, 0.00702 µM
[26] = RPMI 5 mM glucose + 10% dialyzed FBS, 0.0211 µM
[27] = RPMI 5 mM glucose + 10% dialyzed FBS, 0.0632 µM
[28] = RPMI 5 mM glucose + 10% dialyzed FBS, 0.19 µM
[29] = RPMI 5 mM glucose + 10% dialyzed FBS, 0.569 µM
[30] = RPMI 5 mM glucose + 10% dialyzed FBS, 1.71 µM
[31] = RPMI 5 mM glucose + 10% dialyzed FBS, 5.12 µM
[32] = RPMI 5 mM glucose + 10% dialyzed FBS, 15.4 µM
[33] = RPMI 5 mM glucose + 10% dialyzed FBS, 46.1 µM

Structure (SMILES)	cell viability [1]	cell viability [2]	cell viability [3]	cell viability [4]	cell viability [5]	cell viability [6]	cell viability [7]	cell viability [8]	cell viability [9]	cell viability [10]	cell viability [11]	cell viability [12]	cell viability [13]	cell viability [14]	cell viability [15]	cell viability [16]	cell viability [17]	cell viability [18]	cell viability [19]	cell viability [20]	cell viability [21]	cell viability [22]	cell viability [23]	cell viability [24]	cell viability [25]	cell viability [26]	cell viability [27]	cell viability [28]	cell viability [29]	cell viability [30]	cell viability [31]	cell viability [32]	cell viability [33]
CCCCOCCOc1nc(-c2ccc(C(=O)O)c(F)c2)sc1C	124%	126%	120%	125%	123%	124%	108%	111%	115%	109%	119%	101%	111%	113%	118%	104%	109%	107%	102%	102%	84.5%	106%	105%	113%	108%	122%	121%	111%	116%	120%	97.4%	104%	121%
CC[C@H]1OC(=O)[C@H](C)C(=O)[C@H](C)[C@@H](O[C@H]2O[C@H](C)C[C@H](N(C)C)[C@H]2O)[C@](C)(OC)C[C@@H](C)C(=O)[C@H](C)[C@H]2N(CCCCn3cnc(-c4cccnc4)c3)C(=O)O[C@]12C	99.7%	118%	136%	120%	135%	123%	105%	109%	107%	105%	85.2%	95.6%	110%	116%	117%	124%	114%	114%	97.8%	119%	102%	93.3%	110%	124%	121%	117%	135%	126%	99.3%	119%	104%	118%	86.1%
CC1=CC(=CC(=C1C\C2=N\CCN2)C)C(C)(C)C	58.5%	90.1%	83.4%	100%	88.3%	98.1%	97.4%	100%	106%	107%	77.6%	77.8%	104%	91.7%	101%	103%	96.4%	110%	104%	110%	83.3%	94.9%	89.1%	96.3%	102%	105%	118%	107%	118%	112%	113%	120%	94.7%
C=CC(=O)Nc1cc2c(Nc3ccc(F)c(Cl)c3)ncnc2cc1OCCCN1CCOCC1	112%	107%	112%	128%	110%	124%	114%	90.3%	55%	39.2%	26.7%	87.7%	81.5%	85.3%	84%	73.1%	78.6%	80.2%	68.6%	41.7%	24.2%	42.9%	119%	114%	95.4%	127%	112%	110%	108%	89%	56.3%	29.1%	58.8%
OCC(O)C(O)C(O)CO (centres undefined)	85.4%	83.7%	98.2%	101%	103%	102%	73.8%	94.7%	91.6%	37.5%	88.9%	89%	91.1%	92.2%	95.9%	109%	102%	80.2%	103%	97.8%	29.8%	86.4%	103%	105%	102%	101%	88.6%	89.1%	64.6%	91.5%	109%	30.3%	93%
COc1cc(C(=O)N2CC[C@@H](O)[C@@H](N)C2)cc2nc(-c3cc4ccccc4n3CC3CC3)n(C)c12	97.9%	118%	116%	124%	119%	117%	124%	51.1%	28.6%	27.4%	20.1%	–	–	–	–	–	–	–	–	–	–	–	–	–	–	–	–	–	–	–	–	–	–
CNC(=O)c1ccc(Nc2cc(Nc3ccccc3[S+](=O)([O-])C(C)C)c3cc[nH]c3n2)nc1	81.7%	76.4%	96.5%	90.7%	89.8%	98.3%	82.9%	38.2%	28.4%	24.3%	16.8%	93.5%	118%	106%	114%	104%	102%	101%	48.9%	20.8%	17.7%	6.52%	83.9%	99.4%	98.5%	94.7%	102%	97.6%	85%	27%	20.1%	17.4%	7.56%
O=C(O)C(=O)c1cn(Cc2ccccc2)c2ccc(-c3ccc(OC(F)(F)F)cc3)cc12	102%	126%	116%	117%	107%	108%	109%	110%	122%	46.2%	97.5%	119%	106%	104%	103%	98.7%	102%	95.2%	108%	97.3%	45.1%	88.1%	110%	94.6%	102%	99%	98.6%	84.2%	116%	89.1%	101%	30.4%	84.2%
CCCCCCCCCCCCCC(=O)N[C@H](CO)[C@H](O)c1ccc([N+](=O)[O-])cc1	97.4%	81.4%	89.5%	95.4%	98.9%	65.1%	79.7%	39.8%	13.8%	3.54%	2.38%	99.6%	76.1%	89.1%	103%	95.5%	55.4%	66.5%	25.1%	9.49%	3.9%	2.41%	87.3%	81.9%	85.2%	94.3%	93.1%	55.2%	83%	36%	8.3%	4.49%	2.85%
Oc1nc(-c2ccc(C(F)(F)F)cc2)nc2c1CSCC2	90.6%	95.7%	107%	50.8%	110%	106%	97.4%	97.8%	91.1%	84.3%	79.6%	101%	102%	92.6%	39.7%	113%	107%	113%	111%	114%	95.6%	86%	97.9%	96.6%	105%	47%	105%	114%	111%	98.3%	93.6%	82.6%	85.2%
CC(C)c1cc(C(C)C)c(CC(=O)N[S+](=O)([O-])Oc2c(C(C)C)cccc2C(C)C)c(C(C)C)c1	93.7%	108%	107%	96.2%	100%	106%	108%	102%	99.7%	99%	95.1%	114%	119%	114%	121%	114%	121%	116%	115%	130%	122%	115%	90.5%	104%	103%	104%	108%	104%	103%	97.3%	96.8%	88.6%	93.3%
NC[C@H]1O[C@H](O[C@@H]2[C@H](O)[C@@H](O[C@H]3O[C@H](CO)[C@@H](O)[C@H](N)[C@H]3O)[C@H](N)C[C@@H]2N)[C@H](O)[C@@H](O)[C@@H]1O	96.6%	93.3%	100%	24%	88.6%	105%	105%	96.8%	105%	90.1%	87.3%	–	–	–	–	–	–	–	–	–	–	–	115%	125%	124%	23%	113%	83.3%	107%	113%	105%	104%	92.4%
COC(=O)c1ccc2c(c1)NC(=O)/C2=C(\Nc1ccc(N(C)C(=O)CN2CCN(C)CC2)cc1)c1ccccc1	76.7%	79.4%	60.3%	30.1%	48.9%	50.9%	46.4%	38.3%	37.9%	30.5%	23.8%	96.1%	92.7%	84.2%	31.7%	68%	60%	57.5%	43.8%	41.3%	36.7%	24.5%	82.9%	83.2%	60.1%	30.8%	49.2%	44.6%	38.7%	35.9%	30.2%	29.8%	25.4%
CC(=O)Oc1ccccc1C(=O)Nc1ncc([N+](=O)[O-])s1	85.4%	88.9%	89%	91.3%	84.3%	107%	98.3%	104%	96.9%	93.1%	66.3%	85%	100%	92.6%	101%	90.5%	107%	94.7%	101%	104%	85.4%	79.6%	87.1%	93%	99.6%	100%	108%	106%	101%	104%	100%	94.2%	82.7%
CN1CCCN(CC1)C2=CC=C3C(=O)\C(=C/4SC5=C(C=CC=C5)N4C3=N2)C(=O)NCC6=CN=C(C)C=N6	110%	102%	114%	91.7%	97.9%	103%	82.2%	88.1%	81.2%	73.6%	41.6%	–	–	–	–	–	–	–	–	–	–	–	89.6%	93.9%	97.5%	92.7%	98.1%	79.5%	68.2%	71.3%	70.5%	56.3%	33.1%
CC#CCn1c(N2CCC[C@@H](N)C2)nc2c1c(=O)n(Cc1nc(C)c3ccccc3n1)c(=O)n2C	107%	114%	115%	42.6%	115%	104%	112%	109%	111%	116%	83.3%	105%	97.9%	105%	40.3%	114%	102%	112%	108%	109%	102%	88.7%	96.8%	94.4%	88.7%	45.6%	108%	96%	108%	93.9%	93.5%	99.1%	75.2%
